Results on eleven molecules are retold here after patent US20250115598A1 (Anaxis Pharma Pty Ltd, priority 2021, published 2025).

The subject of assay [1] is Immortalised Mouse Dermal Fibroblasts (MDFs). The experiment in a line: Cellular assay: inhibition of TSI induced necroptosis, CellTitre-Glo viability. To be noted: Mus musculus, Fibroblast, MDF, 3 hours TSI cocktail, read-out: Inhibition of TSI-induced necroptosis (IC50 cell-based assay) in MDF. The procedure: Cellular Assay: Screening Compounds for Inhibition of TSI Induced Necroptosis in, 384 Well Plate Format.
• Cell Line ID: Immortalised Mouse Dermal Fibroblasts (MDFs). • Cell Concentration (cells/well): Final cell density is 2200 cells per well. • Cell growth medium: DMEM medium+7.4% Fetal Bovine Serum (FBS). Cells are cultured in Corning 150 cm^2 tissue culture flasks with vented caps at 37° C./10% CO2. • Incubation: Plates were incubated for 30 minutes following addition of compounds and then 3 hours incubation with death stimuli (TSI cocktail) at 37° C./10% CO2 in a humidified incubator. • Compound concentration: 36 μM starting concentration, 1:3 dilution, 10 point • DMSO final concentration (% v/v): 0.3%. Compounds in TSI Cocktail (T: TNF; S: Smac Mimetic; I: IDN-6556) and their Final Concentrations: • rhTNF (100 ng/ml) • Compound a (500 nM)—Smac Mimetic, Tetralogic and SYNthesis Med Chem • IDN-6556 (10 μM)—Selleckchem (S7775)
The cellular assay was carried out according to the following steps: • 1. Each well was prepared by sequential addition of: • a. 40 μL of cell suspension (5.5×10^4 cells/mL) was added to each well to provide a final cell concentration of 2,200 cells per well. • b. After 24 hours, DMSO (control; columns 1-2 and 23-24) or compound in DMSO—addition was performed using acoustic transfer of nL volumes of stock compound to give final test concentrations of 36, 12, 4, 1.3, 0.44, 0.148, 0.049, 0.016, 0.005 and 0.002 μM. All wells were backfilled with DMSO to a final total volume in the well of 100 nL. • c. Following compound/DMSO addition in step (b), Plates were incubated for 30 minutes at 37° C./10% CO2 in a humidified incubator and then 10 μL of 5×TSI cocktail (except to positive controls; columns 2 and 24) was added to each well. • 2. After 3 hours, plate was removed from the 37° C. incubator and equilibrated to room temperature for 15 minutes. • 3. 15 μL of room temperatured CellTitre-Glo2™ (Promega™) was added to each well. • 4. Shook plates for 2 minutes (˜600 rpm) and incubated at room temperature for 15 minutes to allow signal to stabilise. • 5. Read luminescence readout on a plate reader.
Percent viability was calculated for each compound according to equation (2):
[formula] • Wherein RawData is the readout of any cell containing a compound of the invention.
TA is the total activity provided by the luminescence readout from DMSO only wells (columns 2 and 24)=100% viability.
NSA is the non-specific activity provided by DMSO+TSI wells (columns 1 and 23)=0% viability • Curve fitting: 10-point titration curves are fitted with the 4-parameter logistic nonlinear regression model and the IC50 reported is the inflection point of the curve • Analysis: Data was loaded into Dotmatics™ and visualised using the Tibco@ • Spotfire™ software. 10 point titration curves were fitted with the 4 parameter logistic nonlinear regression model and the IC50 reported reflect the inflection point of the curve for curve fitting.
Assay involving the TSI cocktail (T: TNF; S: Smac mimetic; I: IDN-6556): TSI treatment ensures that cells specifically undergo necroptotic cell death. TNF activates the TNF receptor, Smac mimetic directs the signal away from proinflammatory signaling and toward the RIPK1/RIPK3-mediated cell death pathways, and IDN-6556 (Caspase inhibitor) ensures that the apoptotic response is blocked leaving only the programmed necrosis response. The compounds' activity (solution in DMSO) tested in this TSI-induced assay was evaluated by determining the number of viable cells in culture by measuring the amount of ATP present as measured by CelltiterGlo.

The target of assay [2] is human MLKL (full length) (Homo sapiens (Human), UniProt Q8NB16). The experiment in a line: KINOMEscan binding assay, human MLKL (full length). A digest of the protocol: (§1)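 Tagged kinase + immobilized ligand beads + compound; eluted kinase quantified by qPCR. Kinase source: T7 phage lysate (BL21-derived E. coli, 32 °C) or HEK-293 with DNA tag. 11-pt 3-fold series, 1% DMSO, top 30,000 nM (most). Hill fit, slope −1 → Kd.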

Assay [3] has as its target human RIPK1 (Homo sapiens (Human), UniProt Q13546). The experiment in a line: KINOMEscan binding assay, human RIPK1. To be noted: Table 21. An outline of the steps:
as §1

For assay [4], the target named is human RIPK3 (Homo sapiens (Human), UniProt Q9Y572). The experiment in a line: KINOMEscan binding assay, human RIPK3. The note with it: Table 21. A digest of the protocol: as §1
Setting [5] is: hMLKL, Table 25, read-out: MLKL (KD).

Where two headings read alike, the source gives them in different places. A value given as a limit tells only on which side of the number the result lay.

Chain of human MLKL (full length) (Q8NB16 whole entry): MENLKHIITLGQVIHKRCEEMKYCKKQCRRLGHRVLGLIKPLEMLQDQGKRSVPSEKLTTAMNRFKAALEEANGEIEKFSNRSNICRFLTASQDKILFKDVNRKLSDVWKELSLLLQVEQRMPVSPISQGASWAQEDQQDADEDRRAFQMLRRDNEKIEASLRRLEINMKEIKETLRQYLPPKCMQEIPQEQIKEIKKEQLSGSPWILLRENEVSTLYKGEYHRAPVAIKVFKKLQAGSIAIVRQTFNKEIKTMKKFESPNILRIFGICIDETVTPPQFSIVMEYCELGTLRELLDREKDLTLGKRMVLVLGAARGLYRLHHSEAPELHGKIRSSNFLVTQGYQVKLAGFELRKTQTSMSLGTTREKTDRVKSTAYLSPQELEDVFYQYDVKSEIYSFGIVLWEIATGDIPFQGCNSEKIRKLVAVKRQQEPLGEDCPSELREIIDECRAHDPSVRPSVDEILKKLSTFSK
Chain of human RIPK3 (Q9Y572 whole entry): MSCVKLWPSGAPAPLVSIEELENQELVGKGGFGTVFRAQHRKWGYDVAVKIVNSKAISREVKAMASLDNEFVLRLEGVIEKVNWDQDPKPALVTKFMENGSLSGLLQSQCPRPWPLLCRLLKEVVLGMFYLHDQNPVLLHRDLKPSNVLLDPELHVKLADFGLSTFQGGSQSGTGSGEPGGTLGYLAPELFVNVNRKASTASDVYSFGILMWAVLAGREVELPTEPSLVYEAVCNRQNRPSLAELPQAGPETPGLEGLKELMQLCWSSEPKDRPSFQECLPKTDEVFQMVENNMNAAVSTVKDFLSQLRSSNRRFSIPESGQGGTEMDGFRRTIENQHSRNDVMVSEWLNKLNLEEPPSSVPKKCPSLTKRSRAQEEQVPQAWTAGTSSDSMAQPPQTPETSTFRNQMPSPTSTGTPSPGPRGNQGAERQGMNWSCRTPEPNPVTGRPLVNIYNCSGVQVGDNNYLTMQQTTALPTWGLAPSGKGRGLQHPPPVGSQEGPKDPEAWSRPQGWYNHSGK
Chain of human RIPK1 (Q13546 whole entry): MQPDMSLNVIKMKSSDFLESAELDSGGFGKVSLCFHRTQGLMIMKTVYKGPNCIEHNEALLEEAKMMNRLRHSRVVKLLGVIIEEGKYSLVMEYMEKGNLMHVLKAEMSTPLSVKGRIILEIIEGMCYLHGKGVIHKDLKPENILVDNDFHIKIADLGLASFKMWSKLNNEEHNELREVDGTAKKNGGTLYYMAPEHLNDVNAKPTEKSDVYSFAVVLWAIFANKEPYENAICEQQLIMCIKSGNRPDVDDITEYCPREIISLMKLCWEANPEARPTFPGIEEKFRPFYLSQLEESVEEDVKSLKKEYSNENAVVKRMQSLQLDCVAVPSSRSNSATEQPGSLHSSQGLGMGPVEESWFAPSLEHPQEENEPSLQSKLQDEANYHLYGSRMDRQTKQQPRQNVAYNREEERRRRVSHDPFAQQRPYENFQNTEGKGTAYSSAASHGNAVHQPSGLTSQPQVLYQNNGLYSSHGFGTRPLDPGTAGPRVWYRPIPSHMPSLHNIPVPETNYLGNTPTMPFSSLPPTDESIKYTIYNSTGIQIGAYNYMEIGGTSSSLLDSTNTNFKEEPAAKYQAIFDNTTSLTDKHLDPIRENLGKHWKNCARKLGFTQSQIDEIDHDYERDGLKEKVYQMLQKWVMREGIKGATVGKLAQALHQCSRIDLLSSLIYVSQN

Turning to `[2H]C([2H])([2H])N1CCC(n2cc(-c3cnc(N)c4c(-c5ccc(NS(=O)(=O)C(F)F)c(O[C@@H](C)c6ccc(F)cc6)c5)nn(C)c34)cn2)CC1(C)C` (stereo partly drawn) [Compound 152, N-(4-(4-amino-7-(1-(2,2-dimethyl-1-(methyl-d3)piperidin-4-yl)-1H-pyrazol-4-yl)-1-methyl-1H-pyrazolo[4,3-c]pyridin-3-yl)-2-((S)-1-(4-fluorophenyl)ethoxy)phenyl)-1,1-difluoromethanesulfonamide], in assay [1] (Table 24), the IC50 is < 1000 nM. As for `C[C@H](Oc1cc(-c2nn(C)c3c(-c4cnn(CCCCCCC(=O)Nc5cccc6c5CN(C5CCC(=O)NC5=O)C6=O)c4)cnc(N)c23)ccc1NS(=O)(=O)C(F)F)c1ccc(F)cc1` (stereo partly drawn) [Compound 1062, 7-(4-{4-amino-3-[4-(difluoromethanesulfonamido)-3-[(1S)-1-(4-fluorophenyl)ethoxy]phenyl]-1-methyl-1H-pyrazolo[4,3-c]pyridin-7-yl}-1H-pyrazol-1-yl)-N-[2-(2,6-dioxopiperidin-3-yl)-1-oxo-2,3-dihydro-1H-isoindol-4-yl]heptanamide], the Kd in assay [2] (setting [5]) was < 10 nM. Further, the IC50 in assay [1] (Table 27) lay in the range of 1000 to 10000 nM.

`C[C@H](Oc1cc(-c2nn(C)c3c(-c4cnn(C5CCN(C(=O)c6ccc(C(=O)NC7CCC(=O)NC7=O)cc6)CC5)c4)cnc(N)c23)ccc1NS(=O)(=O)C(F)F)c1ccc(F)cc1` (stereo partly drawn) [Compound 1086, 4-[4-(4-{4-amino-3-[4-(difluoromethanesulfonamido)-3-[(1S)-1-(4-fluorophenyl)ethoxy]phenyl]-1-methyl-1H-pyrazolo[4,3-c]pyridin-7-yl}-1H-pyrazol-1-yl)piperidine-1-carbonyl]-N-(2,6-dioxopiperidin-3-yl)benzamide]: in assay [2] (setting [5]), the Kd is < 10 nM. Also, the 50% inhibitory concentration (IC50) in assay [1] (Table 27) lay in the range of 1000 to 10000 nM. Turning to `C[C@H](Oc1cc(-c2nn(C)c3c(-c4cnn(C5CCN(C(=O)CC6CN(c7cccc8c7C(=O)N(C7CCC(=O)NC7=O)C8=O)C6)CC5)c4)cnc(N)c23)ccc1NS(=O)(=O)C(F)F)c1ccc(F)cc1` (stereo partly drawn) [Compound 1112, N-[4-(4-amino-7-{1-[1-(2-{1-[2-(2,6-dioxopiperidin-3-yl)-1,3-dioxo-2,3-dihydro-1H-isoindol-4-yl]azetidin-3-yl}acetyl)piperidin-4-yl]-1H-pyrazol-4-yl}-1-methyl-1H-pyrazolo[4,3-c]pyridin-3-yl)-2-[(1S)-1-(4-fluorophenyl)ethoxy]phenyl]-1,1-difluoromethanesulfonamide], the Kd in assay [2] (setting [5]) was < 10 nM. Also, in assay [1] (Table 27), the IC50 lay in the range of 1000 to 10000 nM.

In the case of `Cc1ncsc1-c1ccc(CNC(=O)[C@@H]2C[C@@H](O)CN2C(=O)[C@@H](NC(=O)CCCCC#Cc2cnc(N)c3c(-c4ccc(NS(=O)(=O)C(F)F)c(O[C@@H](C)c5ccc(F)cc5)c4)nn(C)c23)C(C)(C)C)cc1` [Compound 1026, (2S,4R)-1-[(2S)-2-(7-{4-amino-3-[4-(difluoromethanesulfonamido)-3-[(1S)-1-(4-fluorophenyl)ethoxy]phenyl]-1-methyl-1H-pyrazolo[4,3-c]pyridin-7-yl}hept-6-ynamido)-3,3-dimethylbutanoyl]-4-hydroxy-N-{[4-(4-methyl-1,3-thiazol-5-yl)phenyl]methyl}pyrrolidine-2-carboxamide], the dissociation constant Kd in assay [2] (setting [5]) lay within 10 to 1000 nM. The IC50 in assay [1] (Table 27) was 1000 to 10000 nM.

Regarding `C[C@H](Oc1cc(-c2nn(C)c3c(-c4cnn(C5CCN(C(=O)c6cccc(C(=O)NC7CCC(=O)NC7=O)c6)CC5)c4)cnc(N)c23)ccc1NS(=O)(=O)C(F)F)c1ccc(F)cc1` (stereo partly drawn) [Compound 1084, 3-[4-(4-{4-amino-3-[4-(difluoromethanesulfonamido)-3-[(1S)-1-(4-fluorophenyl)ethoxy]phenyl]-1-methyl-1H-pyrazolo [4,3-c]pyridin-7-yl}-1H-pyrazol-1-yl)piperidine-1-carbonyl]-N-(2,6-dioxopiperidin-3-yl)benzamide], the dissociation constant (Kd) in assay [2] (setting [5]) was < 10 nM. In addition, the IC50 in assay [1] (Table 27) was 1000 to 10000 nM. Regarding `Cc1ncsc1-c1ccc(CNC(=O)[C@@H]2C[C@@H](O)CN2C(=O)[C@@H](NC(=O)CCCCCCCn2cc(-c3cnc(N)c4c(-c5ccc(NS(=O)(=O)C(F)F)c(O[C@@H](C)c6ccc(F)cc6)c5)nn(C)c34)cn2)C(C)(C)C)cc1` [Compound 1067, (2S,4R)-1-[(2S)-2-[8-(4-{4-amino-3-[4-(difluoromethanesulfonamido)-3-[(1S)-1-(4-fluorophenyl)ethoxy]phenyl]-1-methyl-1H-pyrazolo[4,3-c]pyridin-7-yl}-1H-pyrazol-1-yl)octanamido]-3,3-dimethylbutanoyl]-4-hydroxy-N-{[4-(4-methyl-1,3-thiazol-5-yl)phenyl]methyl}pyrrolidine-2-carboxamide], in assay [2] (setting [5]), the Kd was < 10 nM. The IC50 in assay [1] (Table 27) was < 1000 nM.

Regarding `Cc1ncsc1-c1ccc(CNC(=O)[C@@H]2C[C@@H](O)CN2C(=O)[C@@H](NC(=O)CCCCCn2cc(-c3cnc(N)c4c(-c5ccc(NS(=O)(=O)C(F)F)c(O[C@@H](C)c6ccc(F)cc6)c5)nn(C)c34)cn2)C(C)(C)C)cc1` [Compound 1066, (2S,4R)-1-[(2S)-2-[6-(4-{4-amino-3-[4-(difluoromethanesulfonamido)-3-[(1S)-1-(4-fluorophenyl)ethoxy]phenyl]-1-methyl-1H-pyrazolo[4,3-c]pyridin-7-yl}-1H-pyrazol-1-yl)hexanamido]-3,3-dimethylbutanoyl]-4-hydroxy-N-{[4-(4-methyl-1,3-thiazol-5-yl)phenyl]methyl}pyrrolidine-2-carboxamide], the Kd in assay [2] (setting [5]) was < 10 nM. In addition, the IC50 in assay [1] (Table 27) was 1000 to 10000 nM.

As for `C[C@H](Oc1cc(-c2nn(C)c3c(-c4cnn(C5CCN(C(=O)c6ccc7c(N8CCC(=O)NC8=O)coc7c6)CC5)c4)cnc(N)c23)ccc1NS(=O)(=O)C(F)F)c1ccc(F)cc1` [Compound 1117, N-{4-[4-amino-7-(1-{1-[3-(2,4-dioxo-1,3-diazinan-1-yl)-1-benzofuran-6-carbonyl]piperidin-4-yl}-1H-pyrazol-4-yl)-1-methyl-1H-pyrazolo[4,3-c]pyridin-3-yl]-2-[(1S)-1-(4-fluorophenyl)ethoxy]phenyl}-1,1-difluoromethanesulfonamide], in assay [2] (setting [5]), the equilibrium dissociation constant (Kd) is < 10 nM. Also, the IC50 in assay [1] (Table 27) was 1000 to 10000 nM. On to `C[C@H](Oc1cc(-c2nn(C)c3c(-c4cnn(C5CCNC(C(F)(F)F)C5)c4)cnc(N)c23)ccc1NS(=O)(=O)C(F)F)c1ccc(F)cc1` (stereo partly drawn) [Compound 149, N-(4-(4-amino-1-methyl-7-(1-(2-(trifluorometh-yl)piperidin-4-yl)-1H-pyrazol-4-yl)-1H-pyrazolo[4,3-c]pyridin-3-yl)-2-((S)-1-(4-fluoro-phenyl)ethoxy)phenyl)-1,1-difluoro-methanesulfonamide], for which the IC50 in assay [1] (Table 24) is < 1000 nM.

As for `Cn1nc(-c2ccc(NS(=O)(=O)C(F)F)c(OCC3CCCCC3)c2)c2c(N)ncc(-c3cnn(C4CCOCC4)c3)c21` [Compound 150, N-(4-(4-amino-1-methyl-7-(1-(tetrahydro-2H-pyran-4-yl)-1H-pyrazol-4-yl)-1H-pyrazolo[4,3-c]pyridin-3-yl)-2-(cyclohexyl-methoxy)phenyl)-1,1-difluoromethane-sulfonamide], the Kd in assay [2] (KINOMEscan, Table 21, read-out: Human MLKL (full-length) (KD)) was < 1 nM; in assay [3], > 10000 nM; in assay [4], > 10000 nM.

A word on the IC50: it is the concentration that gives 50% inhibition. The term Kd denotes a measure of binding affinity in units of concentration.
